Data on 23 compounds can be found in ChEMBL document CHEMBL1145841, “Design and synthesis of poly ADP-ribose polymerase-1 inhibitors. 2. Biological evaluation of aza-5[H]-phenanthridin-6-ones as potent, aqueous-soluble compounds for the treatment of ischemic injuries” (J Med Chem, 2003).

SMILES strings stand for the structures.

The target of series [1] is Poly [ADP-ribose] polymerase 1 (Homo sapiens, UniProt P09874). The experiment in a line: Inhibitory activity against Poly (ADP-ribose) polymerase 1.
Chain of Poly [ADP-ribose] polymerase 1 (P09874 whole entry): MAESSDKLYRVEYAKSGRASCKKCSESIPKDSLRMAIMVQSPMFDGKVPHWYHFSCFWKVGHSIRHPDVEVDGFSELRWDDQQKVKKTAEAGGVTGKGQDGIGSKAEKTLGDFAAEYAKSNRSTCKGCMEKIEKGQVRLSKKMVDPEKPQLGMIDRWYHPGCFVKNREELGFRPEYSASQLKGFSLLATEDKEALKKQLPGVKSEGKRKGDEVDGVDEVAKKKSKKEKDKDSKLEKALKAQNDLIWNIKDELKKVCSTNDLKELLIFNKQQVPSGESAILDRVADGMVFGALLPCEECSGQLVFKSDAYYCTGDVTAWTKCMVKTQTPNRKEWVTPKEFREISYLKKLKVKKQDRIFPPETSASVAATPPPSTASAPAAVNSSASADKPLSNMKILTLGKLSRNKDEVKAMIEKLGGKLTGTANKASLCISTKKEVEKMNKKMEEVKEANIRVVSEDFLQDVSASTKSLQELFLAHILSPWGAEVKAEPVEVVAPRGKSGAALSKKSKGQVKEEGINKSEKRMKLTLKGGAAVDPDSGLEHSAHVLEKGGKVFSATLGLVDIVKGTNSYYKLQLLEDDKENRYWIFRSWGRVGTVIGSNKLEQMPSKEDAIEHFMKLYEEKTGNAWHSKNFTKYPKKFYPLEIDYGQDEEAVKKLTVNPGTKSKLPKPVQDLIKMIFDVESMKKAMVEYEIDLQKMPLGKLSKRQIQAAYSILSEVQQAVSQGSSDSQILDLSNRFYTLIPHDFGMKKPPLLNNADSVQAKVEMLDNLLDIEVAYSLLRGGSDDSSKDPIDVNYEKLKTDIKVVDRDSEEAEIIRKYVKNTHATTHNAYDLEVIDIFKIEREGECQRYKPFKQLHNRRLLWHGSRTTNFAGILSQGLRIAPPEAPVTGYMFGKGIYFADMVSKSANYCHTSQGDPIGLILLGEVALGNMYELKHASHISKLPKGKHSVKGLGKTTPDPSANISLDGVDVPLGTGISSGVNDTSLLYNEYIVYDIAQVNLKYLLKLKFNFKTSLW
In series [2] the test system is Rattus norvegicus. The experiment in a line: Cerebral Ischemic stroke was expressed to determine the reduction in infarct volume at a dose of 40 mg/kg administered intraperitoneally in rats. Particulars: route intraperitoneal. The format is functional.
In another series the test system is P388. Description: Effective concentration required to inhibit P388D1 cell death by 50%. The series is classed as functional, cell-based. To be noted: Mus musculus.
Series [3] has as its system Rattus norvegicus. The experiment in a line: Myocardial Ischemic stroke was expressed to determine the reduction in infarct volume at a dose of 40 mg/kg administered intravenously in rats. The format is functional, Myocardium. To be noted: route intravenous.
Series [4] in a line: Maximum concentration in brain of rats after intravenous administration. On the set-up: route intravenous. The series is classed as ADME, organism-based. To be noted: rat.
Series [5] in a line: Maximum concentration in plasma of rats after intravenous administration. On the set-up: route intravenous. The series is classed as ADME, organism-based. Particulars: rat.
Series [6] in a line: Maximum concentration in heart of rats after intravenous administration. To be noted: rat. Also on record: route intravenous. The format is ADME, organism-based.
Series [7] concerns Rattus norvegicus. The experiment in a line: Cerebral Ischemic stroke was expressed to determine the reduction in infarct volume at a dose of 80 mg/kg administered intraperitoneally in rats. The series is classed as functional. To be noted: route intraperitoneal.
Series [8] relates to Rattus norvegicus. Description: Myocardial Ischemic stroke was expressed to determine the reduction in infarct volume at a dose of 80 mg/kg administered intravenously in rats. The format is functional, Myocardium. To be noted: route intravenous.
Series [9] relates to Rattus norvegicus. Description: Myocardial Ischemic stroke was expressed to determine the reduction in infarct volume at a dose of 20 mg/kg administered intravenously in rats. The format is functional, Myocardium. To be noted: route intravenous.
In series [10] the test system is Rattus norvegicus. The experiment in a line: Cerebral Ischemic stroke was expressed to determine the reduction in infarct volume at a dose of 80 mg/kg administered intravenously in rats. The series is classed as functional. To be noted: route intravenous.
Series [11] has as its system Rattus norvegicus. The experiment in a line: Cerebral Ischemic stroke was expressed to determine the reduction in infarct volume at a dose of 40 mg/kg administered intravenously i in rats. The format is functional. Particulars: route intravenous.
The test system of series [12] is Rattus norvegicus. The experiment in a line: Cerebral Ischemic stroke was expressed to determine the reduction in infarct volume at a dose of 80 mg/kg administered intravenously i in rats. To be noted: route intravenous. The series is classed as functional.
Series [13] deals with Rattus norvegicus. Description: Cerebral Ischemic stroke was expressed to determine the reduction in infarct volume at a dose of 20 mg/kg administered intravenously i in rats. To be noted: route intravenous. The series is classed as functional.
For series [14], the system named is Rattus norvegicus. Description: Cerebral Ischemic stroke was expressed to determine the reduction in infarct volume at a dose of 40 mg/kg administered intravenously in rats. The series is classed as functional. To be noted: route intravenous.

With `Oc1nc2ccc(N3C[C@H]4C[C@@H]3CN4)nc2c2ccccc12`, the half-maximal inhibitory concentration (IC50) (in general, the midpoint of a concentration-inhibition curve) in [1] was determined as 42 nM. This lies in the double-digit nanomolar range.

Regarding `Oc1nc2ccncc2c2ccccc12`, the Reduction in the series on Rattus norvegicus [2] came out at 47%.

As to `CN1C[C@H]2C[C@@H]1CN2c1ccc2nc(O)c3ccccc3c2n1`, the EC50 (commonly the midpoint of the concentration-response curve) in the series on P388 turned out to be 240 nM.

In the case of `CC(C)(C)OC(=O)N1C[C@H]2C[C@@H]1CN2c1ccc2[nH]c(=O)c3ccccc3c2n1`, in series [1], the IC50 turned out to be 774 nM.

`CN1CCN(c2ccc3nc(O)c4ccccc4c3n2)CC1` displayed an EC50 with P388 of 125 nM.

On to `CS(=O)(=O)O.Oc1nc2ccc(N3CCN(CC4CC4)CC3)nc2c2ccccc12`, for which the Reduction in the series on Rattus norvegicus [3] was determined as 36%. In the series with P388, this compound registered an EC50 of 145 nM. In addition, the Cmax – broadly, the peak of the concentration-time curve – in [4] was 8850 ng/g; in [5], 1950 ng/mL; in [6], 7480 ng/g. This compound gave an IC50 in [1] of 71 nM.

For `NC(=O)c1ccccc1` [BENZAMIDE], the IC50 in series [1] turned out to be 20000 nM.

`O=C(CN1CCC(N2CCCC2)CC1)Nc1cnc2c(c1)nc(O)c1ccccc12` registered a 50% effective concentration (EC50) with P388 of 1140 nM.

`Nc1ccc2[nH]c(=O)c3ccccc3c2n1` gave an IC50 in series [1] of 209 nM.

With `CS(=O)(=O)O.Oc1nc2ccc(N3CCNCC3)nc2c2ccccc12`, the EC50 in the series on P388 was 150 nM. In addition, the values for the Cmax in [4], in [5] and in series [6] were 2180 ng/g, 3790 ng/mL and 20300 ng/g, respectively. In series [1], the IC50 is 58 nM.

In [1], `CC(C)N1CCN(CC(=O)Nc2ccc3nc(O)c4ccccc4c3n2)CC1` showed an IC50 of 277 nM.

Consider `O=c1[nH]c2cccnc2c2ccccc12`, for which the Reduction in the series with Rattus norvegicus [7] amounted to 55%.

Turning to `O=C(CN1CCCCC1)Nc1ccc2nc(O)c3ccccc3c2n1`, in the series on P388, the EC50 was determined as 1110 nM.

As for `Cl.O=C(CN1CCC(N2CCCC2)CC1)Nc1ccc2nc(O)c3ccccc3c2n1`, the Reduction with Rattus norvegicus [8] is given as 44%; in the series with Rattus norvegicus [9], 13%; in the series with Rattus norvegicus [10], -1%; in the series on Rattus norvegicus [3], 39%. It took 1270 nM to reach a half-maximal effect with P388 (EC50). The Cmax in series [4] is 1440 ng/g; in series [5], 4790 ng/mL; in [6], 38400 ng/g.

As to `CCN(CC)CCNc1ccc2[nH]c(=O)c3ccccc3c2n1`, the IC50 in series [1] came to 173 nM.

In the series with P388, `Oc1nc2ccc(N3CCC(N4CCCC4)CC3)nc2c2ccccc12` returned an EC50 of 177 nM.

With `CN(C)CC(=O)Nc1cnc2c(c1)nc(O)c1ccccc12`, the 50% effective concentration (EC50) in the series on P388 amounted to 2630 nM.

As to `CN1CCN(c2ccc3nc(O)c4ccccc4c3n2)CC1.CS(=O)(=O)O`, the Reduction in the series with Rattus norvegicus [8] was 25.5%; with Rattus norvegicus [3], 18.8%; in the series with Rattus norvegicus [11] it was 18%; with Rattus norvegicus [12], 35%; in the series on Rattus norvegicus [13] it was 33%; in the series on Rattus norvegicus [14] it was 44%. The Cmax amounted to 13700 ng/g in [4], 456 ng/mL in series [5] and 2980 ng/g in [6].

For the compound `O=c1[nH]c2cnccc2c2ccccc12`, the IC50 in [1] came to 169 nM.

In the series with P388, `C[N+]1([O-])CCN(c2ccc3nc(O)c4ccccc4c3n2)CC1` showed an EC50 of 5800 nM. The highest level in series [5] (Cmax) was 10 ng/mL.

In turn, `CN(C)C1CCN(c2ccc3nc(O)c4ccccc4c3n2)CC1` had an EC50 with P388 of 135 nM. In series [1], the IC50 is 112 nM.

In the series on P388, `CN(C)CC(=O)Nc1ccc2nc(O)c3ccccc3c2n1` displayed an EC50 of 2080 nM.

Consider `O=c1[nH]c2ccccc2c2ccccc12`, for which the Reduction with Rattus norvegicus [2] is on record as -7%. Also, the IC50 in [1] amounted to 350 nM.
